Results from ChEMBL document CHEMBL5620428, “Discovery of tetrahydroisoquinolineindole derivatives as first dual PRMT5 inhibitors/hnRNP E1 upregulators: Design, synthesis and biological evaluation” (Eur J Med Chem, 2023).
Values belong to the compound of their own block, whether it stands above or below them. Calls of active or inactive are those of the source. The rule behind the calls is not given here.

Assays:
[1] = target: Protein arginine N-methyltransferase 5 (Homo sapiens, UniProt O14744); test: Inhibition of PRMT5 (unknown origin)
Chain of Protein arginine N-methyltransferase 5 (O14744 whole entry): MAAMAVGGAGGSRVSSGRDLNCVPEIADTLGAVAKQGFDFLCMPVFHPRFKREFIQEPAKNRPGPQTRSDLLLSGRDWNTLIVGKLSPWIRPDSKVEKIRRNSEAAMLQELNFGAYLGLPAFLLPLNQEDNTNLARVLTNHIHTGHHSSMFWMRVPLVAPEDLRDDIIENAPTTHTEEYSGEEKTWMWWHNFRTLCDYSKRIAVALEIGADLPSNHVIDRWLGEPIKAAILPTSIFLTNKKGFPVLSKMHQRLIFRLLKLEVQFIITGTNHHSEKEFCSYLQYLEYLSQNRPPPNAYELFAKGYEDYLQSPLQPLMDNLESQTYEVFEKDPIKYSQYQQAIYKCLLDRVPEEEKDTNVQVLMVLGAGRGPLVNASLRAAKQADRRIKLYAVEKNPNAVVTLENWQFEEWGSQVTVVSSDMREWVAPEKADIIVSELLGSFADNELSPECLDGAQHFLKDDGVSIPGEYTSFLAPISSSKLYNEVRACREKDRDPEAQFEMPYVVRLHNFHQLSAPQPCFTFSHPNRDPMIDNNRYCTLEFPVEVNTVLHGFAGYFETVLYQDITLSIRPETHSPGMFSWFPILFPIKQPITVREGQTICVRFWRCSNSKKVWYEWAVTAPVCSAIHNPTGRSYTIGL

[2] = tested on: A549; test: Antiproliferative activity against human A549 cells assessed as reduction in cell viability at 25 uM incubated for 24 hrs by SRB assay; type: functional, cell-based
[3] = Metabolic stability in human liver microsome assessed as half life measured upto 4 hrs in presence of NADPH by LC-MS/MS analysis; type: ADME; conditions: liver microsomes
[4] = Metabolic stability in rat liver microsome assessed as half life measured upto 4 hrs in presence of NADPH by LC-MS/MS analysis; type: ADME; conditions: liver microsomes
[5] = Tmax in Sprague-Dawley rat at 10 mg/kg, po measured upto 24 hrs by LC-MS/MS analysis; type: ADME, organism-based; conditions: in vivo
[6] = Cmax in Sprague-Dawley rat at 10 mg/kg, po measured upto 24 hrs by LC-MS/MS analysis; type: ADME, organism-based; conditions: in vivo
[7] = Half life in Sprague-Dawley rat at 10 mg/kg, po measured upto 24 hrs by LC-MS/MS analysis; type: ADME, organism-based; conditions: in vivo
[8] = AUC (0 to t) in Sprague-Dawley rat at 10 mg/kg, po measured upto 24 hrs by LC-MS/MS analysis; type: ADME, organism-based; conditions: in vivo
[9] = AUC (0 to infinity) in Sprague-Dawley rat at 10 mg/kg, po measured upto 24 hrs by LC-MS/MS analysis; type: ADME, organism-based; conditions: in vivo
[10] = target: Protein arginine N-methyltransferase 1 (Homo sapiens, UniProt Q99873); test: Inhibition of PRMT1 (unknown origin)
Chain of Protein arginine N-methyltransferase 1 (Q99873 whole entry): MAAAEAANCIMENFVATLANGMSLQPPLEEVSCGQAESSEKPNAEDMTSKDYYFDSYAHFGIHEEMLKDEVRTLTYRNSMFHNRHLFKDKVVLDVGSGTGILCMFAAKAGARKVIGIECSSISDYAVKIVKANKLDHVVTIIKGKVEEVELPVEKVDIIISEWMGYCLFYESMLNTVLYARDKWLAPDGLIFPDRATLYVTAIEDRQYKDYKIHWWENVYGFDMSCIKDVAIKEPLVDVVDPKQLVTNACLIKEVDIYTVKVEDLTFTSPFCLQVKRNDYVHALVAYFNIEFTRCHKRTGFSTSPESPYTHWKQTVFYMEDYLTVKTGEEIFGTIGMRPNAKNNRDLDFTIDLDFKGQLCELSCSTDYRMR

[11] = target: T1, Histone-arginine methyltransferase CARM1 (Homo sapiens, UniProt Q86X55); test: Inhibition of PRMT4 (unknown origin)
T1 sequence (Q86X55 whole entry): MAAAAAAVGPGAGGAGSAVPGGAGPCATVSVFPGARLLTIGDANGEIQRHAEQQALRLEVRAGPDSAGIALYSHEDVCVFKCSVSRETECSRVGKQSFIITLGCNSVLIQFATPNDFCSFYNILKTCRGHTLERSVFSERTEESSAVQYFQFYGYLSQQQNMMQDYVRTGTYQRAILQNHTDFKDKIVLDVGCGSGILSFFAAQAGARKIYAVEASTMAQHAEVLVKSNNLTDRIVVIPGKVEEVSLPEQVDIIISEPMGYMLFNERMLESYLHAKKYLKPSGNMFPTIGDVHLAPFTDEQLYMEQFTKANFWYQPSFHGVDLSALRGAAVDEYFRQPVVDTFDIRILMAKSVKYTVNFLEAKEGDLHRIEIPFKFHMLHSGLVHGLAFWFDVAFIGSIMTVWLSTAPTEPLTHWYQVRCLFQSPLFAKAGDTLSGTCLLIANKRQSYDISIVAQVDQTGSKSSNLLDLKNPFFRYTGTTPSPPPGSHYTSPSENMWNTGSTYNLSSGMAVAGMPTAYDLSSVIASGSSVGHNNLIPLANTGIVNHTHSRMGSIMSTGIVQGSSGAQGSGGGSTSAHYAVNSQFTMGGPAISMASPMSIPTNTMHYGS

[12] = tested on: A549; test: Antiproliferative activity against human A549 cells assessed as inhibition of cell growth incubated for 24 hrs by SRB assay; type: functional, cell-based; conditions: A549, 24 h
[13] = tested on: MCF7; test: Antiproliferative activity against human MCF7 cells assessed as inhibition of cell growth incubated for 24 hrs by SRB assay; type: functional, cell-based; conditions: MCF7, 24 h
[14] = tested on: MDA-MB-231; test: Antiproliferative activity against human MDA-MB-231 cells assessed as inhibition of cell growth incubated for 24 hrs by SRB assay; type: functional, cell-based; conditions: MDA-MB-231, 24 h
[15] = tested on: HepG2; test: Antiproliferative activity against human HepG2 cells assessed as inhibition of cell growth incubated for 24 hrs by SRB assay; type: functional, cell-based; conditions: HepG2, 24 h
[16] = Antiproliferative activity against human L02 cells assessed as inhibition of cell growth incubated for 24 hrs by SRB assay; type: toxicity, cell-based
[17] = tested on: A549; test: Anticancer activity against human A549 cells assessed as decrease in cell number incubated for 24 hrs by SRB assay; type: functional, cell-based; conditions: dose 12.5-50 µM
[18] = tested on: A549; test: Induction of apoptosis in human A549 cells assessed as nuclear fragmentation incubated for 24 hrs by Hoechst 33342 staining based analysis; type: functional, cell-based; conditions: dose 12.5-50 µM
[19] = tested on: A549; test: Induction of apoptosis in human A549 cells at 2.5 to 50 uM incubated for 24 hrs by Hoechst 33342 staining based analysis; type: functional; conditions: dose 2.5-50 µM
[20] = tested on: A549; test: Inhibition of cell migration human A549 cells assessed as decrease in migration distance at 12.5 to 25 uM incubated upto 12 hrs by wound healing assay; type: functional, cell-based; conditions: dose 12.5-25 µM
[21] = tested on: A549; test: Upregulation of hnRNP E1 gene expression in human A549 cells at 12.5 to 50 uM incubated for 24 hrs by Western blot analysis; type: functional, cell-based; conditions: dose 12.5-50 µM
[22] = tested on: A549; test: Induction of apoptosis in human A549 cells transfected in hnRNP E1 siRNA assessed as reduction in cell number incubated for 24 hrs by Hoechst 33258 staining based analysis; type: functional
[23] = tested on: A549; test: Inhibition of cell migration human A549 cells transfected with hnRNP E1 siRNA incubated upto 12 hrs by wound healing assay; type: functional, cell-based
[24] = Cmax in Sprague-Dawley rat at 2 mg/kg, iv measured upto 24 hrs by LC-MS/MS analysis; type: ADME, organism-based; conditions: in vivo
[25] = Half life in Sprague-Dawley rat at 2 mg/kg, iv measured upto 24 hrs by LC-MS/MS analysis; type: ADME, organism-based; conditions: in vivo
[26] = AUC (0 to t) in Sprague-Dawley rat at 2 mg/kg, iv measured upto 24 hrs by LC-MS/MS analysis; type: ADME, organism-based; conditions: in vivo
[27] = AUC (0 to infinity) in Sprague-Dawley rat at 2 mg/kg, iv measured upto 24 hrs by LC-MS/MS analysis; type: ADME, organism-based; conditions: in vivo
[28] = Clearance in Sprague-Dawley rat at 2 mg/kg, iv measured upto 24 hrs by LC-MS/MS analysis; type: ADME, organism-based; conditions: in vivo
[29] = Volume of distribution in Sprague-Dawley rat at 2 mg/kg, iv measured upto 24 hrs by LC-MS/MS analysis; type: ADME, organism-based; conditions: in vivo
[30] = Oral bioavailability in Sprague-Dawley rat at 10 mg/kg measured upto 24 hrs by LC-MS/MS analysis; type: ADME, organism-based; conditions: in vivo
[31] = Bioavailability in Sprague-Dawley rat at 2 mg/kg, iv measured upto 24 hrs by LC-MS/MS analysis; type: ADME, organism-based; conditions: in vivo

Structure (SMILES): COc1ccc2c(ccn2C[C@H](O)CN2CCc3ccccc3C2C)c1 (some centres undefined)
IC50 [1]: 14.8 µM | Activity [2]: Active

Structure (SMILES): N#Cc1ccc2c(ccn2C[C@H](O)CN2CCc3ccccc3C2)c1
IC50 [1]: 12 µM | Activity [2]: Active

Structure (SMILES): COc1ccc2c(ccn2C[C@H](O)CN2CCc3cc(OC)c(OC)cc3C2)c1
IC50 [1]: 40.4 µM | Activity [2]: Active

Structure (SMILES): O[C@H](CN1CCc2ccccc2C1)Cn1ccc2cc(F)ccc21
IC50 [1]: 18.8 µM | Activity [2]: Active

Structure (SMILES): COc1ccc2c(c1)CCN(C[C@@H](O)Cn1ccc3ccc(Br)cc31)C2
IC50 [1]: 31.8 µM | Activity [2]: Active

Structure (SMILES): COc1ccc2c(c1)CCN(C[C@@H](O)Cn1ccc3cc(OC)ccc31)C2
IC50 [1]: 36.3 µM | Activity [2]: Active

Structure (SMILES): COc1cc2c(cc1OC)CN(C[C@@H](O)Cn1ccc3ccc(Br)cc31)CC2
IC50 [1]: 61.4 µM | Activity [2]: Active

Structure (SMILES): COc1ccc2c(ccn2C[C@H](O)CN2CCc3cc(Br)ccc3C2)c1
IC50 [1]: 51.3 µM | Activity [2]: Active

Now those with a lower IC50 [1], led by results:

IC50 [1]: 1.7 µM
Structure (SMILES): O[C@H](CN1CCc2ccccc2C1)Cn1ccc2c(F)cccc21
Activity [2]: Active

IC50 [1]: 2.1 µM
Structure (SMILES): N#Cc1cn(C[C@H](O)CN2CCc3ccccc3C2)c2ccccc12
Activity [2]: Active

IC50 [1]: 0.008 µM | half-life [3]: 1.45 h | half-life [4]: 0.173 h | Tmax [5]: 0.3 h | Cmax [6]: 77.1 ng/mL | half-life [7]: 2.31 h | AUC(0-t) at 24 h [8]: 223 ng·h/mL | AUC(0-inf) [9]: 233 ng·h/mL
Structure (SMILES): O=C(NC[C@H](O)CN1CCc2ccccc2C1)c1ccc2c(c1)CCN(C(=O)c1ccc(Br)cc1)C2

IC50 [1]: 0.62 µM
Structure (SMILES): Cc1ccc2c(ccn2C[C@H](O)CN2CCc3ccccc3C2)c1
Activity [2]: Active

IC50 [1]: 1.21 µM
Structure (SMILES): N#Cc1ccc2ccn(C[C@H](O)CN3CCc4ccccc4C3)c2c1
Activity [2]: Active

IC50 [1]: 1.3 µM
Structure (SMILES): Cc1cc2ccccc2n1C[C@H](O)CN1CCc2ccccc2C1
Activity [2]: Active

IC50 [1]: 2.52 µM
Structure (SMILES): CC(=O)c1cn(C[C@H](O)CN2CCc3ccccc3C2)c2ccccc12
Activity [2]: Active

IC50 [1]: 0.31 µM | IC50 [10]: > 20 µM | IC50 [11]: > 20 µM | IC50 [12]: 19.1 µM | IC50 [13]: 23.6 µM | IC50 [14]: 20.5 µM | IC50 [15]: 27.7 µM | half-life [3]: 2.21 h | half-life [4]: 0.342 h | Tmax [5]: 2.7 h | Cmax [6]: 160 ng/mL | Cmax [24]: 182 ng/mL | half-life [7]: 6.7 h | half-life [25]: 4.1 h | AUC(0-t) at 24 h [8]: 1970 ng·h/mL | AUC(0-t) at 24 h [26]: 1250 ng·h/mL | AUC(0-inf) [9]: 2180 ng·h/mL | AUC(0-inf) [27]: 1280 ng·h/mL | clearance [28]: 26.7 mL/min/kg | Vd [29]: 9.3 L/kg | bioavailability [30]: 31.4% | F [31]: 100%
Structure (SMILES): COc1ccc2c(ccn2C[C@H](O)CN2CCc3ccccc3C2)c1
Activity [2]: Active | IC50 at 24 h [16]: > 100 µM | Activity [17]: Dose-Dependent Effect | Activity [18]: Dose-Dependent Effect | Activity [19]: 68% | Activity [20]: Active | Activity [21]: Active | Activity [22]: Active | Activity [23]: inactive

IC50 [1]: 1.8 µM
Structure (SMILES): Cc1cccc2c1ccn2C[C@H](O)CN1CCc2ccccc2C1
Activity [2]: Active
